The series can be described thus: gradient 5% acetonitrile 3 min, to 50% in 2 min, to 85% in 15 min, held 3 min, 100 µL/min. To be noted: column: Zorbax Extend-C18 2.1 x 50 mm; eluents: water / acetonitrile, 0.1% formic acid. The gist of the method: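 Values are retention times taken from adduct peaks that software picked and an analyst inspected. The pure standards were run as mixtures of ~100 molecules on HPLC linked to a quadrupole time-of-flight mass spectrometer, in positive and negative ionization mode. A Zorbax Extend-C18 column (2.1 × 50 mm, 1.8 μm) was used at 100 μL/min with water and acetonitrile, each including 0.1% formic acid.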
As for `CC(C)Cn1c(=O)c(N2CCN(C(=O)NCc3ccccc3)CC2)nc2ccncc21`, the RP-LC retention time was determined as 572 s.

The compound `Cc1ccccc1-c1noc(C2CCCN2S(=O)(=O)c2ccc3c(c2)CCCC3)n1` (stereo not given) showed an RP-LC retention time of 1340 s.

The compound `Fc1ccc2[nH]c(CN3CCN(c4ccccn4)CC3)cc2c1` yielded an RP-LC retention time of 649 s.

`Cc1[nH]c(=O)[nH]c(=O)c1/C=C/C(=O)NC(CO)CC(C)C` (stereo not given) came in with an RP-LC retention time of 592 s.

In turn, `O=C(C1CCC1)N1CCc2sc(S(=O)(=O)NCc3ccc(Cl)cc3)cc2C1` showed an RP-LC retention time of 916 s.

The compound `CCn1cc(-c2nc(-c3ccc(OC(C)C)cc3)no2)c(=O)c2cc(F)c(N3CCOCC3)cc21` had an RP-LC retention time of 1050 s.

The compound `CCOc1ccc2c(n1)CCN(C(=O)Nc1cc(C)cc(C)c1)C2` yielded an RP-LC retention time of 912 s.

Take `COc1cccc(-n2c(=O)c(C(=O)NCc3cccs3)c(O)c3cccnc32)c1`: the RP-LC retention time was 1170 s.

Regarding `CCOc1ccccc1C(=O)NC1CCN(C(=O)c2cn(-c3ccc(C)c(C)c3)nn2)CC1`, the RP-LC retention time turned out to be 873 s.

On to `O=C(Nc1ccccc1)N1CCC(n2cnc3cc(Cl)ccc3c2=O)CC1`, for which the RP-LC retention time came out at 784 s.

`O=C(c1ccncc1)N1CCCn2nc(-c3ccc(Cl)cc3)cc2C1` returned an RP-LC retention time of 719 s.

As for `O=C(NCc1csc(-c2ccccc2)n1)C1CCN(S(=O)(=O)c2cccc3nsnc23)CC1`, the RP-LC retention time came to 886 s.

The compound `Cc1ccc(-c2nc(-c3cccc(-c4ccn[nH]4)c3)no2)cc1F` registered an RP-LC retention time of 915 s.

For the compound `CCC1Oc2ccc(S(=O)(=O)N3CCC(C(=O)Nc4cc(C)cc(C)c4)CC3)cc2NC1=O` (stereo not given), the RP-LC retention time is 837 s.

Compound `Cc1ccc(C(=O)N2CCCC(COc3ccc(C(=O)NC4CC4)cc3)C2)cc1F` (stereo not given) had an RP-LC retention time of 849 s.

`Cc1ccc(C)c(OCC(O)Cn2c(C3CC3)nc3ccccc32)c1` (stereo not given) showed an RP-LC retention time of 731 s.

`CCCCNC(=O)C1CCCN(C(=O)c2[nH]c(C)c(C(=O)OCC)c2C)C1` (stereo not given) gave an RP-LC retention time of 756 s.

On to `Cc1cc(C)cc(N2CCC(NC(=O)CC(C)C)C2=O)c1` (stereo not given), for which the RP-LC retention time came to 814 s.

In the case of `CCc1cccc(NS(=O)(=O)c2cc3n(c2)CCCN(C)C3=O)c1`, the RP-LC retention time turned out to be 728 s.

For the compound `COC(=O)c1ccc2c(=O)n(CCc3ccccc3)c(N3CCN(c4ccccn4)CC3)nc2c1`, the RP-LC retention time turned out to be 756 s.

`CCCNC(=O)C1CCCN(c2ccc(SCC(=O)Nc3cc(F)ccc3C)nn2)C1` (stereo not given) had an RP-LC retention time of 700 s.

The compound `Cc1ccc(C)c(-c2csc(NC(=O)c3ccc4c(c3)OCO4)n2)c1` yielded an RP-LC retention time of 1140 s.

`O=C(NC1CCN(c2cc(-c3ccc(Cl)cc3)[nH]n2)C1)c1cccc(OC(F)(F)F)c1` (stereo not given): the RP-LC retention time worked out at 862 s.

With `O=C(Nc1cccc(F)c1)N1CC2CCCN2c2ccccc21` (stereo not given), the RP-LC retention time turned out to be 1110 s.

The compound `CCCc1cc(N2CCN(C(=O)c3nccc4ccccc34)CC2)nc2nncn12` returned an RP-LC retention time of 619 s.

`COc1ccc(-c2csc(NC(=O)c3cc(OC)c(OC)c(OC)c3)n2)cc1` came in with an RP-LC retention time of 1030 s.

Consider `CCc1noc(NC(C)=O)c1-c1ccc(OC)c(S(=O)(=O)Nc2ccc(Cl)cc2F)c1`, for which the RP-LC retention time is 842 s.

The compound `CCc1ccc(S(=O)(=O)Nc2cc(C(=O)O)ccc2N2CCN(c3ccccn3)CC2)cc1` yielded an RP-LC retention time of 669 s.

The compound `Cc1cc(Cl)ccc1NC(=O)NCC1CCOCC1` showed an RP-LC retention time of 788 s.

`Cc1ccc(Nc2nc3ccncc3n(Cc3ccccc3)c2=O)cc1`: the RP-LC retention time amounted to 778 s.

Regarding `Cc1ccccc1NC(=O)Cn1cnc2nc(N3CCCC(C(=O)NC4CC4)C3)sc2c1=O` (stereo not given), the RP-LC retention time worked out at 644 s.

`CCN1CCN(CCNC(=O)C2CCCN(c3nnc(C)c4c(C)n(-c5ccccc5)nc34)C2)CC1` (stereo not given) displayed an RP-LC retention time of 570 s.

As to `O=C(Cc1c[nH]c2ccccc12)NCC1CCN(c2cc(-c3ccncc3)[nH]n2)CC1`, the RP-LC retention time was determined as 595 s.

Compound `O=C(O)C1CCN(c2nc3ccc(-c4ccc(F)cc4)nc3s2)CC1` displayed an RP-LC retention time of 902 s.

`CCc1cccc(C)c1NC(=O)C1CCN(S(C)(=O)=O)c2ccccc2O1` (stereo not given) showed an RP-LC retention time of 880 s.

`CSc1ccc(-c2noc(Cn3c(=O)n(-c4ccc(Cl)cc4)c(=O)c4sccc43)n2)cc1` came in with an RP-LC retention time of 1100 s.

`COCCN1C(=O)Cc2ccccc2C1C(=O)NCc1ccc(C)o1` (stereo not given) yielded an RP-LC retention time of 637 s.

For the compound `COc1ccc(CNS(=O)(=O)c2cc(-c3cc(C(F)(F)F)on3)sc2C)cc1`, the RP-LC retention time worked out at 848 s.

Compound `CCc1nc(-n2cccc2)sc1C(=O)NC1CCC(C)CC1` (stereo not given) displayed an RP-LC retention time of 1180 s.

Compound `COc1cc(NC(=O)NC2CCN(c3nc4ccccc4n(C)c3=O)CC2)cc(OC)c1` displayed an RP-LC retention time of 801 s.

Regarding `COc1ncc(C(=O)NCc2ccccc2C(F)(F)F)cn1`, the RP-LC retention time stood at 783 s.

Compound `O=C(Cc1cccs1)NCC(=O)Nc1nc2ccccc2[nH]1` yielded an RP-LC retention time of 609 s.

On to `COCC(=O)N1CCCn2cc(-c3ccccc3F)nc21`, for which the RP-LC retention time came to 668 s.

In the case of `Cc1cnc(C)n1C1CCN(S(=O)(=O)c2ccc(C#N)cc2)CC1`, the RP-LC retention time was found to be 626 s.

With `CN1CCCc2cc(C(=O)NCc3ccccc3)sc21`, the RP-LC retention time came out at 882 s.

Compound `CCNC(=O)N1CCC2(CC1)c1nccn1-c1ccccc1CN2CC(C)C` registered an RP-LC retention time of 623 s.

In turn, `Cc1ccccc1-c1noc(C2CCCN2C(=O)CNS(=O)(=O)c2ccc(Cl)cc2)n1` (stereo not given) returned an RP-LC retention time of 1020 s.

For `COC(=O)C(C)N1CN(c2ccc(C)cc2)c2ncccc2S1(=O)=O` (stereo not given), the RP-LC retention time is 918 s.

With `COc1ccc(NC(=O)C2CCN(S(=O)(=O)c3ccc4[nH]c(=O)sc4c3)CC2)cc1Cl`, the RP-LC retention time was found to be 821 s.

`O=C(NC1CCCCCC1)C1CCc2sc(C(=O)N3CCOCC3)cc2C1` (stereo not given): the RP-LC retention time is 789 s.

For `CCOC(=O)c1[nH]c(C)c(CCC(=O)N2CCCC(C(=O)NC(C)C)C2)c1C` (stereo not given), the RP-LC retention time was determined as 723 s.

In the case of `O=C(C1CCC1)N1CCC(c2nc(C3CCOCC3)no2)C1` (stereo not given), the RP-LC retention time came out at 671 s.

As for `COC(=O)c1c(NCc2ccc3c(c2)OCO3)c2cccc(Cl)c2[nH]c1=O`, the RP-LC retention time turned out to be 788 s.

On to `Cc1nc(CCNC(=O)Cc2cccs2)no1`, for which the RP-LC retention time was found to be 646 s.

Consider `COc1ccc(N2CCN(c3nc(C(=O)N4CCN(CC(C)C)CC4)cs3)CC2)cc1`, for which the RP-LC retention time is 648 s.

In the case of `CCOc1ccc(-c2nc(Cn3nnc(C(=O)Nc4ccccc4OC)c3C)c(C)o2)cc1`, the RP-LC retention time was determined as 1150 s.

`CCOC(=O)c1c(C)c(CCC(=O)NC(C)C)n(CC)c1C` returned an RP-LC retention time of 821 s.

On to `COc1cc(Cl)ccc1-c1nc(C2CC(=O)N(c3ccc(C)cc3)C2)no1` (stereo not given), for which the RP-LC retention time amounted to 1070 s.

For `COc1cc(NC(=O)C2CC(=O)N(c3ccc4c(c3)CCN4C(C)=O)C2)cc(OC)c1` (stereo not given), the RP-LC retention time is 694 s.

As to `Cc1cccc(N2CCN(C(=O)CN3CCN(Cc4ccccc4)C3=O)CC2)c1`, the RP-LC retention time came out at 853 s.

`c1ccc(-c2cn(CCC3CCCCN3)nn2)cc1` (stereo not given) gave an RP-LC retention time of 509 s.

Compound `O=C(Cn1nc2c(SC3CCCCC3)nccn2c1=O)N1CCN(c2ccccc2)CC1` came in with an RP-LC retention time of 1110 s.

The compound `Clc1ccc(-c2ccc(CNCc3ccco3)o2)c(Cl)c1` yielded an RP-LC retention time of 743 s.

The compound `COCCNC(=O)c1nn(-c2ccc(Cl)cc2)c2c(=O)n(C)cnc12` came in with an RP-LC retention time of 709 s.

The compound `CC(C)n1c(N2CCN(C(=O)c3ccc(F)cc3)CC2)cc(=O)n(C(C)C)c1=O` returned an RP-LC retention time of 792 s.

For `CC1(C)COc2ccc(NC(=O)COc3ccccc3F)cc2NC1=O`, the RP-LC retention time stood at 825 s.

Consider `CCn1cc(C(=O)O)c(=O)c2ccc(Cc3ccccc3)nc21`, for which the RP-LC retention time was 1010 s.

`COc1cccc(-n2c(=O)c3sccc3n(Cc3nc(-c4ccc(C(C)(C)C)cc4)no3)c2=O)c1` returned an RP-LC retention time of 1220 s.

`CCCCOc1ccc(CNC(=O)CN2CC=C(c3cnn(-c4ccc(C)c(C)c4)c3)CC2)cc1` showed an RP-LC retention time of 924 s.

Regarding `CCC(C(=O)N1CCc2ccccc21)n1cnc2nc3c(cc2c1=O)CCCC3` (stereo not given), the RP-LC retention time worked out at 899 s.

`O=C(Nc1cccc(C(F)(F)F)c1)C1CCN(c2cc(-n3ccnc3)ncn2)CC1` displayed an RP-LC retention time of 625 s.

For `CCN(CC)C(=O)Cn1nc2c(SCc3ccc(Cl)cc3)nccn2c1=O`, the RP-LC retention time was 930 s.

In the case of `O=C(COc1ccc(Cl)cc1Cl)NCc1ccsc1`, the RP-LC retention time was 920 s.

On to `O=C(CSc1ccc(F)cc1)Nc1ccc2c(c1)CC(=O)N2`, for which the RP-LC retention time was found to be 646 s.

Compound `Cc1ccc(Cl)cc1NS(=O)(=O)c1cc(-c2nc(C(C)(C)C)cs2)cs1` yielded an RP-LC retention time of 1330 s.

In the case of `Cn1nc(C(=O)NCc2ccc3c(c2)OCO3)c2c1CCN(C(=O)C1CC1)C2`, the RP-LC retention time is 716 s.

Regarding `Cn1cnnc1-c1nn(C)c2c1CN(C(=O)CCc1cc(Cl)no1)CC2`, the RP-LC retention time stood at 629 s.

Turning to `CCN1CCCC1CNc1onc(-c2ccc(Cl)cc2)c1C(=O)OC` (stereo not given), the RP-LC retention time was determined as 699 s.

On to `CC1CCN(S(=O)(=O)c2ccc(-c3nnc(C(=O)N4CCCCCC4)o3)cc2)CC1`, for which the RP-LC retention time amounted to 1100 s.

The compound `CCNc1nc(C)cc(N2CCN(C(=O)Nc3ccc(C)c(C)c3)CC2)n1` showed an RP-LC retention time of 684 s.

These data come from the METLIN SMRT retention time set (Domingo-Almenara et al. 2019).
